From patent publication US20100190788A1, “Amide derivatives as kinase inhitors” (priority 2005, published 2010)
Structures can show the parent of a compound that is named as a salt.

molecular target: T1, human ROCKα/ROCKII mix (Homo sapiens, UniProt O75116); experiment: ROCK inhibition, fluorescence polarization (FP) assay with ROCK IMAP Kit; assay type: biochemical; conditions: Table 4, compounds 132 to 156
T1 construct: purchased Upstate Biotechnology 14-451
T1 sequence (O75116 whole entry): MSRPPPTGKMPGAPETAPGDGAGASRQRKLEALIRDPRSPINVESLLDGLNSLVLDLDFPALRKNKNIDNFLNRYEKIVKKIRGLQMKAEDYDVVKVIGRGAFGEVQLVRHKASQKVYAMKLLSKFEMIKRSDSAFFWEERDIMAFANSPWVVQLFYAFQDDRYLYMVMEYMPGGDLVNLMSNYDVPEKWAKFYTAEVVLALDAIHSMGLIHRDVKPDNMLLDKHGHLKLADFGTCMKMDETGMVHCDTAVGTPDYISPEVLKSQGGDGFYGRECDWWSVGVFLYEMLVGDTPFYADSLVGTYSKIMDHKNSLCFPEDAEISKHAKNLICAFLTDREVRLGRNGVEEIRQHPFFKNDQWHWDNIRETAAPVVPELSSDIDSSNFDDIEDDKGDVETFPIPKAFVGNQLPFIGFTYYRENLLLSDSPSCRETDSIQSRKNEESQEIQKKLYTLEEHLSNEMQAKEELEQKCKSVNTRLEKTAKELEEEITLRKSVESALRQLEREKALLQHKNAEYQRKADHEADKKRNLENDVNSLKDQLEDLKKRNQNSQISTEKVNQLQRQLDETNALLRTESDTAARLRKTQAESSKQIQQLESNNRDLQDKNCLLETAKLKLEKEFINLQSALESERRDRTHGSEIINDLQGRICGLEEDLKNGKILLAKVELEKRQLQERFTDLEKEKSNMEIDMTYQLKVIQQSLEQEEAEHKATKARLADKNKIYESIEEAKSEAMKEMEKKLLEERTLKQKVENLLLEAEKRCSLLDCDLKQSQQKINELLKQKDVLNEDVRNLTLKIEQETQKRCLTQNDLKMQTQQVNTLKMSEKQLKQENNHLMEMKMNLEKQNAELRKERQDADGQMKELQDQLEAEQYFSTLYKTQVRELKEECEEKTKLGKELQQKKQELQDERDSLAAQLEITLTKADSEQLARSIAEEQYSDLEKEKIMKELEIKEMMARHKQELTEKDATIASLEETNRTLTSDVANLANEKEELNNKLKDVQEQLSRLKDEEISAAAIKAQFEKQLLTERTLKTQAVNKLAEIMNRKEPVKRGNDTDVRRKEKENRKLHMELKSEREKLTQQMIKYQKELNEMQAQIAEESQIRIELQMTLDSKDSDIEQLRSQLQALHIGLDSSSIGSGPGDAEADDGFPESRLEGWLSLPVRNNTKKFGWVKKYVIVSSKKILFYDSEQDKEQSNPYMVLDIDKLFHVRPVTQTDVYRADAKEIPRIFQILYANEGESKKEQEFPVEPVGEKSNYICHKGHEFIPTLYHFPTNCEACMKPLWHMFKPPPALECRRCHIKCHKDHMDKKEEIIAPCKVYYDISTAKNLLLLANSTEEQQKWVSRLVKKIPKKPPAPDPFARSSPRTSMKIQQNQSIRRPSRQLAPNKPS

Row | SMILES | IC50
1 | N[C@@H](CC(=O)N1CCC[C@@H]1c1cccc(F)c1)c1ccc(C(=O)Nc2ccncc2)cc1 [Compound 151, 4-{(S)-1-Amino-3-[(R)-2-(3-fluoro-phenyl)-pyrrolidin-1-yl]-3-oxo-propyl}-N-pyridin-4-yl-benzamide dihydrochloric acid salt] | < 0.5 µM
2 | N[C@@H](CC(=O)N1CCC[C@H]1c1cccc(F)c1)c1ccc(C(=O)Nc2ccncc2)cc1 [Compound 152, 4-{(S)-1-Amino-3-[(S)-2-(3-fluoro-phenyl)-pyrrolidin-1-yl]-3-oxo-propyl}-N-pyridin-4-yl-benzamide dihydrochloric acid salt] | < 0.5 µM
3 | COc1ccc(S(=O)(=O)N(C)C[C@H](N)c2ccc(C(=O)Nc3ccncc3)cc2)cc1 [Compound 153, 4-{(R)1-Amino-2-[(4-methoxy-benzenesulfonyl)-methyl-amino]-ethyl}-N-pyridin-4-yl-benzamide dihydrochloric acid salt] | 5 to 50 µM
4 | COc1ccc(S(=O)(=O)N(C)C[C@@H](N)c2ccc(C(=O)Nc3ccncc3)cc2)cc1 [Compound 154, 4-{(S)1-Amino-2-[(4-methoxy-benzenesulfonyl)-methyl-amino]-ethyl}-N-pyridin-4-yl-benzamide dihydrochloric acid salt] | < 0.5 µM
5 | N[C@H](C(=O)NCc1ccccc1)c1ccc(C(=O)Nc2ccncc2)cc1 [Compound 155, 4-((S)-Amino-benzylcarbamoyl-methyl)-N-pyridin-4-yl-benzamide dihydrochloric acid salt] | < 0.5 µM
6 | N[C@@H](C(=O)NCc1ccccc1)c1ccc(C(=O)Nc2ccncc2)cc1 [Compound 156, 4-((R)-Amino-benzylcarbamoyl-methyl)-N-pyridin-4-yl-benzamide dihydrochloric acid salt] | 0.5 to 5 µM
